Data from patent publication US8012963B2, “3,4-dihydro-2H-benzo[1,4]oxazine and thiazine derivatives as CETP inhibitors” (Janssen Pharmaceutica N.V., priority 2006, dated 2011).

Target: T1, CETP (Homo sapiens, UniProt P11597)
T1 construct: from tissue; host or cells: human plasma from normal volunteers
T1 sequence (P11597 18-493): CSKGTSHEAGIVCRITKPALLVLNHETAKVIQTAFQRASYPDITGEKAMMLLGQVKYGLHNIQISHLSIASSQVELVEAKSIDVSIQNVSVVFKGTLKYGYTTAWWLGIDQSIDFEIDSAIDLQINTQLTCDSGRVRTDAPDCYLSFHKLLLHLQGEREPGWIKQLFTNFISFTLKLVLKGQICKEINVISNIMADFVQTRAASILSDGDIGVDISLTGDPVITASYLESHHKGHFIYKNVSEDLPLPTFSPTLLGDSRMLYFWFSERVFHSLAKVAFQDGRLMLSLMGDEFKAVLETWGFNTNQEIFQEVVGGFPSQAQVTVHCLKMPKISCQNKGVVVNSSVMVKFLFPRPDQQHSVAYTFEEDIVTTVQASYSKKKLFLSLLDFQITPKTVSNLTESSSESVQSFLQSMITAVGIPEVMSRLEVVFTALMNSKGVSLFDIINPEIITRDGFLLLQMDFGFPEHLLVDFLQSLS
Assay: CETP in vitro assay ([3H]CE-HDL transfer, Amersham kit TRKQ7005; modified protocol in human plasma)
Assay type: biochemical
Settings: 1 μM compound; multiple values = multiple measurements
Experimental: The CETP inhibitory activity of the compounds was determined using a commercially available kit from Amersham Biosciences (Catalog #TRKQ7005).
For the measurement of inhibitory activity in human plasma, a modified protocol (Connolly, D. T. et al., Biochemistry, 39 13870-13879, 2000) was used. Briefly, 80 μl of human plasma (obtained from normal volunteers), approximately 25 μg/ml (200) of [^3H]CE-HDL (Amersham Biosciences from kit TRKQ7005) and 1 μl of compound dissolved in DMSO was incubated for at least 4 hrs at 37° C. and non-specific transfer was determined by incubating a corresponding plate at 4° C. (blank). After the incubation period, 100 of a solution of 1% Dextralip 50/0.5M MgCl2, pH 7.4 was added, vortexed and incubated at room temperature for 10 min. The plate was then centrifuged for 30 min at 10° C. at 3000 rpm in a Sorvall RT6000B centrifuge. Fifty microliters of the supernatant was transferred to a Picoplate (Packard) containing 100 μl of Microscint 40 (Perkin Elmer) and mixed for 30 min using a plate mixer. The radioactivity was counted using a TopCount (Perkin Elmer) and the % control was determined in the samples using the following formula: % transfer relative to vehicle controls (% control)=[cpm blank-cpm test]/cpm blank/cpm control]×100. IC50s were calculated from plots of the % control versus compound concentration.
A variety of example compounds have been made and tested, with a range of in vitro results. Below, in Table 2, are representative compounds and the corresponding data; in some cases, where multiple IC50's are shown, multiple measurements were taken. Naturally, different compounds in Formula (I), (Ia), (Ib) and (Ic) may have not activities identical to any one compound below.

Row | Compound | inhibition at 1 µM
1 | CC(C)(C)[Si](C)(C)OCCN1c2cccc(-c3cccc(OC(F)(F)F)c3)c2OCC1c1cccc(OC(F)(F)C(F)F)c1 (centres unmarked) [Compound 22, 4-[2-(tert-Butyl-dimethyl-silanyloxy)-ethyl]-3-[3-(1,1,2,2-tetrafluoro-ethoxy)-phenyl]-8-(3-trifluoromethoxy-phenyl)-3,4-dihydro-2H-benzo[1,4]oxazine] | 13%
2 | OCCN1c2cccc(-c3cccc(OC(F)(F)F)c3)c2OCC1c1cccc(OC(F)(F)C(F)F)c1 (centres unmarked) [Compound 23, 2-[3-[3-(1,1,2,2-Tetrafluoro-ethoxy)-phenyl]-8-(3-trifluoromethoxy-phenyl)-2,3-dihydro-benzo[1,4]oxazin-4-yl]-ethanol] | 29%
3 | CC(C)(C)[Si](C)(C)OCCCN1c2cccc(-c3cccc(OC(F)(F)F)c3)c2OCC1c1cccc(OC(F)(F)C(F)F)c1 (centres unmarked) [Compound 25, 4-[3-(tert-Butyl-dimethyl-silanyloxy)-propyl]-3-[3-(1,1,2,2-tetrafluoro-ethoxy)-phenyl]-8-(3-trifluoromethoxy-phenyl)-3,4-dihydro-2H-benzo[1,4]oxazine] | 13%
4 | CN(C)CCN1c2cccc(-c3cccc(OC(F)(F)F)c3)c2OCC1c1cccc(OC(F)(F)C(F)F)c1 (centres unmarked) [Compound 28, Dimethyl-{2-[3-[3-(1,1,2,2-tetrafluoro-ethoxy)-phenyl]-8-(3-trifluoromethoxy-phenyl)-2,3-dihydro-benzo[1,4]oxazin-4-yl]-ethyl}-amine] | 9%
5 | FC(F)C(F)(F)Oc1cccc(C2COc3c(-c4cccc(OC(F)(F)F)c4)cccc3N2CCN2CCNCC2)c1 (centres unmarked) [Compound 30, 4-(2-piperazin-1-yl-ethyl)-3-[3-(1,1,2,2-tetrafluoro-ethoxy)-phenyl]-8-(3-trifluoromethoxy-phenyl)-3,4-dihydro-2H-benzo[1,4]oxazine] | 0%

The next lines start with the values.

Row | inhibition at 1 µM | Compound
6 | 2% | CCOC(=O)N1c2cccc(-c3cccc(OC(F)(F)F)c3)c2OCC1c1cccc(OC(F)(F)C(F)F)c1 (centres unmarked) [Compound 21, 3-[3-(1,1,2,2-Tetrafluoro-ethoxy)-phenyl]-8-(3-trifluoromethoxy-phenyl)-2,3-dihydro-benzo[1,4]oxazine-4-carboxylic acid ethyl ester]
7 | 25% | COCCN1c2cccc(-c3cccc(OC(F)(F)F)c3)c2OCC1c1cccc(OC(F)(F)C(F)F)c1 (centres unmarked) [Compound 24, 4-(2-Methoxy-ethyl)-3-[3-(1,1,2,2-tetrafluoro-ethoxy)-phenyl]-8-(3-trifluoromethoxy-phenyl)-3,4-dihydro-2H-benzo[1,4]oxazine]
8 | 10% | OCCCN1c2cccc(-c3cccc(OC(F)(F)F)c3)c2OCC1c1cccc(OC(F)(F)C(F)F)c1 (centres unmarked) [Compound 26, 3-[3-[3-(1,1,2,2-Tetrafluoro-ethoxy)-phenyl]-8-(3-trifluoromethoxy-phenyl)-2,3-dihydro-benzo[1,4]oxazin-4-yl]-propan-1-ol]
9 | 29% | COCCCN1c2cccc(-c3cccc(OC(F)(F)F)c3)c2OCC1c1cccc(OC(F)(F)C(F)F)c1 (centres unmarked) [Compound 27, 4-(3-Methoxy-propyl)-3-[3-(1,1,2,2-tetrafluoro-ethoxy)-phenyl]-8-(3-trifluoromethoxy-phenyl)-3,4-dihydro-2H-benzo[1,4]oxazine]
10 | 0% | FC(F)C(F)(F)Oc1cccc(C2COc3c(-c4cccc(OC(F)(F)F)c4)cccc3N2CCN2CCOCC2)c1 (centres unmarked) [Compound 29, 4-(2-Morpholin-4-yl-ethyl)-3-[3-(1,1,2,2-tetrafluoro-ethoxy)-phenyl]-8-(3-trifluoromethoxy-phenyl)-3,4-dihydro-2H-benzo[1,4]oxazine]
11 | 17% | CN1CCN(CCN2c3cccc(-c4cccc(OC(F)(F)F)c4)c3OCC2c2cccc(OC(F)(F)C(F)F)c2)CC1 (centres unmarked) [Compound 31, 4-[2-(4-Methyl-piperazin-1-yl)-ethyl]-3-[3-(1,1,2,2-tetrafluoro-ethoxy)-phenyl]-8-(3-trifluoromethoxy-phenyl)-3,4-dihydro-2H-benzo[1,4]oxazine]
